Measurements as given in US11851406B2, “Positive allosteric modulators of the muscarinic acetylcholine receptor M1” (Vanderbilt University, priority 2018, dated 2023).

How the values were obtained:
human mAChR M1 [1] = molecular target: T1, human mAChR M1 (Homo sapiens, UniProt P11229); test: mAChR M1 cell-based functional assay (calcium mobilization), PAM activity: increase in the EC20 acetylcholine response; settings: CHO-K1 cells expressing hM1; calcium flux (Fluo-4); potentiation of EC20 acetylcholine response
T1 sequence (P11229 1-460): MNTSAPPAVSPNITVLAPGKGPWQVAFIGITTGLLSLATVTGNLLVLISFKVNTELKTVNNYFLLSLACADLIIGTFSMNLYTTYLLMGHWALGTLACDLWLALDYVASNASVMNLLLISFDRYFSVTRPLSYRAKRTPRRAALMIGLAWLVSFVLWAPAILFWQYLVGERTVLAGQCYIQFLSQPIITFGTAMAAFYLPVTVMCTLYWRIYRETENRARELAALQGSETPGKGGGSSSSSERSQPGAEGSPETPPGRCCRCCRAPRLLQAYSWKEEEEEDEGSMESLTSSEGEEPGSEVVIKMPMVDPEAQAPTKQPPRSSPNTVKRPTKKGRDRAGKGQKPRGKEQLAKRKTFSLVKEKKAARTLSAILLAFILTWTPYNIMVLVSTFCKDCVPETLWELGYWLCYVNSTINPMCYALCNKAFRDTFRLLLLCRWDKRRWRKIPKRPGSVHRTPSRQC
Source text: (§1) Chinese hamster ovary (CHO-K1) cells stably expressing rat (r)M1 were purchased from the American Type Culture Collection and cultured according to their indicated protocol. CHO cells stably expressing human (h)M2, hM3, and hM5 were described previously (Levey, et al., 1991); hM1 and hM4 cDNAs were purchased from Missouri S&T cDNA Resource; rM4 cDNA was provided by T. I. Bonner (National Institutes of Health, Bethesda, Md.). rM2 and rM3 were cloned from a rat brain cDNA library and sequence verified. hM1, rM2, rM3, hM4, and rM4 cDNAs were used to stably transfect CHO-K1 cells purchased from the American Type Culture Collection using Lipofectamine2000. To make stable rM2, hM2, rM3, hM4, and rM4 cell lines for use in calcium mobilization assays, these cells also were stably transfected with a chimeric G-protein (Gqi5) (provided by B. R. Conklin, University of California, San Francisco) using Lipofectamine 2000. rM1, hM1, rM3, hM3, rM5, and hM5 cells were grown in Ham's F-12 medium containing 10% heat-inactivated fetal bovine serum (FBS), 20 mM HEPES, and 50 μg/mL G418 sulfate. rM2-Gqi5, hM2-Gqi5, and hM4-Gqi5 cells were grown in the same medium also containing 500 μg/mL Hygromycin B. Stable rM4-Gqi5 cells were grown in DMEM containing 10% heat-inactivated FBS, 20 mM HEPES, 400 μg/mL G418 sulfate, and 500 μg/mL Hygromycin B.
(§2) For high throughput measurement of agonist-evoked increases in intracellular calcium, CHO-K1 cells stably expressing muscarinic receptors were plated in growth medium lacking G418 and hygromycin at 15,000 cells/20 μL/well in Greiner 384-well black-walled, tissue culture (TC)-treated, clear-bottom plates (VWR). Cells were incubated overnight at 37° C. and 5% CO2. The next day, cells were washed using an ELX 405 (BioTek) with four washes (80 μL) of assay buffer then aspirated to 20 μL. Next, 20 μL of 16 μM Fluo-4/acetoxymethyl ester (Invitrogen, Carlsbad, Calif.) prepared as a 2.3 mM stock in DMSO and mixed in a 1:1 ratio with 10% (w/v) Pluronic F-127 and diluted in assay buffer was added to the wells and the cell plates were incubated for 50 min at 37° C. and 5% CO2. Dye was removed by washing with the ELX 405 (four 80 μL washes of assay buffer) then aspirated to 20 μL. Compound master plates were formatted in an 11 point CRC format (1:3 dilutions) in 100% DMSO with a starting concentration of 10 mM using the BRAVO liquid handler (Agilent). Test compound CRCs were then transferred to daughter plates (240 nL) using the Echo acoustic plate reformatter (Labcyte, Sunnyvale, Calif.) and then diluted into assay buffer (40 μL) to a 2× stock using a Thermo Fisher Combi (Thermo Fisher Scientific, Waltham, Mass.).
(§3) Calcium flux was measured using the Functional Drug Screening System (FDSS) 6000 (Hamamatsu Corporation, Tokyo, Japan) as an increase in the fluorescent static ratio. Compounds were applied to cells (20 μL, 2×) using the automated system of the FDSS 6000 at 4 s into the 300 s protocol and the data were collected at 1 Hz. At 144 s into the 300 s protocol, 10 μL of an EC20 concentration of the muscarinic receptor agonist acetylcholine was added (5×), followed by the addition of 12 μL an EC80 concentration of acetylcholine at the 230 s time point (5×). Agonist activity was analyzed as a concentration-dependent increase in calcium mobilization upon compound addition. Emax values for agonist activity are expressed relative to the maximum for acetylcholine. Positive allosteric modulator activity was analyzed as a concentration-dependent increase in the EC20 acetylcholine response. Antagonist activity was analyzed as a concentration-dependent decrease in the EC80 acetylcholine response. Concentration-response curves were generated using a four-parameter logistical equation in XLfit curve fitting software (IDBS, Bridgewater, N.J.) for Excel (Microsoft, Redmond, Wash.) or Prism (GraphPad Software, Inc., San Diego, Calif.).

human mAChR M1 [2] = molecular target: T1, human mAChR M1; test: mAChR M1 cell-based functional assay (calcium mobilization), agonist activity upon compound addition alone; settings: CHO-K1 cells expressing hM1; for EC50: calcium mobilization upon compound addition, no acetylcholine; for Emax: compound alone, relative to the maximum for acetylcholine
Source text: as §1, §2, §3

| SMILES | EC50 (human mAChR M1 [1]) [µM] | Emax (human mAChR M1 [1]) [%] | EC50 (human mAChR M1 [2]) [µM] | Emax (human mAChR M1 [2]) [%] |
| --- | --- | --- | --- | --- |
| Cc1c(Cc2ccc(-c3ccn(C)n3)cc2)cc(C(=O)NC2CCOCC2(C)C)nc1-c1ccn(C)n1 (stereo not shown) [Compound 17, N-(3,3-dimethyltetrahydro-2H-pyran-4-yl)-5-methyl-6-(1-methyl-1H-pyrazol-3-yl)-4-(4-(1-methyl-1H-pyrazol-3-yl)benzyl)picolinamide] | 2.26 | 86 | > 10 | < 5 |
| Cn1cc(-c2ccc(Cc3cc(C(=O)N[C@H]4CCOC[C@@H]4O)nc(-n4cccn4)c3)cn2)cn1 [Compound 18, N-((3R,4S)-3-hydroxytetrahydro-2H-pyran-4-yl)-4-((6-(1-methyl-1H-pyrazol-4-yl)pyridin-3-yl)methyl)-6-(1H-pyrazol-1-yl)picolinamide] | 1.02 | 85 | ≥ 10 | 13 |
| Cc1nc(-c2ccc(Cc3cc(C(=O)N[C@H]4CCOC[C@@H]4O)nc(-n4cccn4)c3)cc2)co1 [Compound 19, N-((3R,4S)-3-hydroxytetrahydro-2H-pyran-4-yl)-4-(4-(2-methyloxazol-4-yl)benzyl)-6-(1H-pyrazol-1-yl)picolinamide] | 1.97 | 88 | > 10 | < 5 |
| Cn1cc(-c2ccc(Cc3cc(C(=O)N[C@H]4CCCC[C@@H]4O)nc(-n4cccn4)c3)cn2)cn1 [Compound 20, N-((1S,2S)-2-hydroxycyclohexyl)-4-((6-(1-methyl-1H-pyrazol-4-yl)pyridin-3-yl)methyl)-6-(1H-pyrazol-1-yl)picolinamide] | 2.25 | 61 | > 10 | < 5 |
| Cn1cc(-c2ccc(Cc3cc(C(=O)NC4CC5(COC5)C4)nc(-n4cccn4)c3)cn2)cn1 [Compound 21, 4-((6-(1-methyl-1H-pyrazol-4-yl)pyridin-3-yl)methyl)-6-(1H-pyrazol-1-yl)-N-(2-oxaspiro[3.3]heptan-6-yl)picolinamide] | – | 40 | > 10 | < 5 |
| Cc1nc(-c2ccc(Cc3cc(C(=O)N[C@H]4CCCC[C@@H]4O)nc(-n4cccn4)c3)cc2)co1 [Compound 22, N-((1S,2S)-2-hydroxycyclohexyl)-4-(4-(2-methyloxazol-4-yl)benzyl)-6-(1H-pyrazol-1-yl)picolinamide] | 0.634 | 86 | ≥ 10 | 11 |
| Cc1nc(-c2ccc(Cc3cc(C(=O)NC4CC5(COC5)C4)nc(-n4cccn4)c3)cc2)co1 [Compound 23, 4-(4-(2-methyloxazol-4-yl)benzyl)-6-(1H-pyrazol-1-yl)-N-(2-oxaspiro[3.3]heptan-6-yl)picolinamide] | 6.25 | 69 | > 10 | < 5 |
| Cc1nc(-c2ccc(Cc3cc(C(=O)N[C@H]4CCC[C@@H]4O)nc(-n4cccn4)c3)cc2)co1 [Compound 24, N-((1S,2S)-2-hydroxycyclopentyl)-4-(4-(2-methyloxazol-4-yl)benzyl)-6-(1H-pyrazol-1-yl)picolinamide] | 4.91 | 78 | > 10 | < 5 |
| Cc1nc(-c2ccc(Cc3cc(C(=O)N[C@H]4CC[C@@H]4O)nc(-n4cccn4)c3)cc2)co1 [Compound 25, N-((1S,2S)-2-hydroxycyclobutyl)-4-(4-(2-methyloxazol-4-yl)benzyl)-6-(1H-pyrazol-1-yl)picolinamide] | – | 40 | > 10 | < 5 |
| Cn1cc(-c2ccc(Cc3cc(C(=O)NC4CCOCC4)nc(-n4cccn4)c3)cn2)cn1 [Compound 26, 4-((6-(1-methyl-1H-pyrazol-4-yl)pyridin-3-yl)methyl)-6-(1H-pyrazol-1-yl)-N-(tetrahydro-2H-pyran-4-yl)picolinamide] | – | 47 | > 10 | 5 |
| Cc1nc(-c2ccc(Cc3cc(C(=O)NC4CCOCC4)nc(-n4cccn4)c3)cc2)co1 [Compound 27, 4-(4-(2-methyloxazol-4-yl)benzyl)-6-(1H-pyrazol-1-yl)-N-(tetrahydro-2H-pyran-4-yl)picolinamide] | – | 62 | > 10 | 6 |
| Cn1ccc(-c2ccc(Cc3cc(C(=O)N[C@H]4CCOC[C@@H]4O)nc(-n4cccn4)c3)cc2)n1 [Compound 28, N-((3R,4S)-3-hydroxytetrahydro-2H-pyran-4-yl)-4-(4-(1-methyl-1H-pyrazol-3-yl)benzyl)-6-(1H-pyrazol-1-yl)picolinamide] | 1.07 | 78 | > 10 | 7 |
| Cn1ccc(-c2ccc(Cc3cc(C(=O)N[C@H]4CCCC[C@@H]4O)nc(-n4cccn4)c3)cc2)n1 [Compound 29, N-((1S,2S)-2-hydroxycyclohexyl)-4-(4-(1-methyl-1H-pyrazol-3-yl)benzyl)-6-(1H-pyrazol-1-yl)picolinamide] | 2.1 | 73 | > 10 | < 5 |
| Cn1ccc(-c2ccc(Cc3cc(C(=O)NC4CCOCC4)nc(-n4cccn4)c3)cc2)n1 [Compound 30, 4-(4-(1-methyl-1H-pyrazol-3-yl)benzyl)-6-(1H-pyrazol-1-yl)-N-(tetrahydro-2H-pyran-4-yl)picolinamide] | – | 65 | > 10 | < 5 |
| Cn1ccc(-c2ccc(Cc3cc(C(=O)NC4CC5(COC5)C4)nc(-n4cccn4)c3)cc2)n1 [Compound 31, 4-(4-(1-methyl-1H-pyrazol-3-yl)benzyl)-6-(1H-pyrazol-1-yl)-N-(2-oxaspiro[3.3]heptan-6-yl)picolinamide] | – | 56 | > 10 | < 5 |
| Cn1ccc(-c2ccc(Cc3cc(C(=O)N[C@H]4CC[C@@H]4O)nc(-n4cccn4)c3)cc2)n1 [Compound 32, N-((1S,2S)-2-hydroxycyclobutyl)-4-(4-(1-methyl-1H-pyrazol-3-yl)benzyl)-6-(1H-pyrazol-1-yl)picolinamide] | – | 46 | > 10 | < 5 |
| Cn1ccc(-c2ccc(Cc3cc(C(=O)N[C@H]4CCC[C@@H]4O)nc(-n4cccn4)c3)cc2)n1 [Compound 33, N-((1S,2S)-2-hydroxycyclopentyl)-4-(4-(1-methyl-1H-pyrazol-3-yl)benzyl)-6-(1H-pyrazol-1-yl)picolinamide] | 5.51 | 69 | > 10 | < 5 |
